# Results published in patent US20230181482A1, “LIPIDS FOR DELIVERY OF NUCLEIC ACID SEGMENTS” (AstraZeneca AB, priority 2021, published 2023).
# Assays:
# [1] = mRNA encapsulation efficiency of LNP formulations (Quant-it Ribogreen assay with Triton-X100); assay type: physicochemical; details: N/P ratio 3:1, DMPE-PEG2000
# Experimental: (§1) A solution of eGFP mRNA (purchased from TriLink Biotechnologies) in citrate buffer was prepared by mixing mRNA dissolved in MilliQ-water, 100 mM citrate buffer (pH 3) and MilliQ-water to give a solution of 50 mM citrate. Lipid solution in ethanol (99.5%) was prepared with four different lipid components: ionizable lipid (see Table 1); cholesterol (Sigma-Aldrich); DSPC (distearoyl phosphatidyl choline, Avanti Polar Lipids Inc); and a polymer-conjugated lipid (see Table 1). The ratio of lipids in all experiments was ionizable lipid/cholesterol/DSPC/polymer-conjugated lipid (50/38.5/10/1.5 mol %). The total concentration of lipids in all experiments was 12.5 mM.
# (§2) The mRNA and lipid solutions were mixed in a NanoAssemblr (Precision Nanosystems, Vancouver, BC, Canada) microfluidic mixing system at a mixing ratio of Aq:EtOH=3:1 and a constant flow rate of 12 mL/min. The mRNA in citrate buffer solution was prepared such that, at the time of mixing the ratio between the nitrogen atoms on the ionizable lipid and phosphorus atoms (N/P ratio) on the mRNA chain was either 3:1 or 6:1 (see Table 1).
# The final mRNA concentration and encapsulation efficiency percentage (% EE) was measured by Quant-it Ribogreen Assay Kit (ThermoFischer Scientific Inc.) using Triton-X100 to disrupt the LNPs. The mRNA encapsulation efficiency was determined according to the following equation: […]
# [2] = LNP particle size by dynamic light scattering (Zetasizer Nano ZS); assay type: physicochemical; details: N/P ratio 3:1, DMPE-PEG2000
# Experimental: as §1, §2
# The first 0.2-0.35 mL and the last 0.05-0.1 mL of the LNP suspension prepared were discarded while the rest of the volume was collected as the sample fraction. The size of the mRNA lipid nanoparticles was determined by dynamic light scattering measurements using a Zetasizer Nano ZS from Malvern Instruments Ltd, giving directly the z-average particle diameter. The number-weighted particle size distributions and averages were calculated using a particle refractive index of 1.45.
# [3] = system: Female BALB/c mice; test: eGFP expression in the liver at 24 hours after intravenous administration of LNP formulations to mouse (ELISA); assay type: in vivo; details: LNP N/P 3:1, DMPE-PEG2000
# From the text: Female BALB/c mice were purchased (SPF (Beijing) Laboratory Animal Technology Co. Ltd.) and on arrival were caged in groups of 4 on corncob bedding, with normal diet and were provided tap drinking water ad libitum that was purified and autoclaved before being offered to the animal. The environment was maintained at a target temperature of […] and relative humidity of 40-80%, with a 12-hour light/dark cycle. Animals were acclimatised to the housing conditions for at least 7 days prior to any experimental procedures and were approximately 6-8 weeks of age at the start of dosing
# Animals were assigned to respective groups such that the mean body weights for each treatment groups will be equal. N=4 for each treatment group.
# Formulations 1, 3, 4, 5, and 6 from Example 58 were each dosed intravenously: Each mouse was removed from its cage and restrained, and then dosed with a slow IV bolus of a formulation in the lateral tail vein at a dose […] of 0.3 mg/kg.
# All animals were sacrificed 24 hours after dosing and flowing blood sampling the liver for the animals dosed by the IV route and the liver and muscle at the dose site for the IM dosed animals were harvested for eGFP analysis by ELISA.
# Additional LNP formulations were prepared according to the procedures described in Example 46. These formulations were tested using the same protocol as described herein. The results of eGFP expression in the liver at 24 hours after intravenous administration of the formulations were summarized in Tables 3, 4, 5 and 6 below.
Compound,% EE ([1]; Table 4) [%],<d>N (nm) ([2]; Table 4),<d>Z (nm) ([2]; Table 4),"Liver eGFP protein (ng/g tissue) ([3]; Table 4, 0.3 mg/kg)",% EE ([1]; Table 5) [%],<d>N (nm) ([2]; Table 5),<d>Z (nm) ([2]; Table 5),"Liver eGFP protein (ng/g tissue) ([3]; Table 5, 0.3 mg/kg)"
"CCCCCCCCC(CCCCCCCC)OC(=O)CCCCCCC(CCCCCCC(=O)OC(CCCCCCCC)CCCCCCCC)NC1CC2(COC2)C1 [Compound 23, di(heptadecan-9-yl) 8-((2-oxaspiro[3.3]heptan-6-yl)amino)pentadecanedioate]",96,45,62,2318.8,,,,
"CCCCCCCCCOC(=O)CCCCCCC(CCCCCCC(=O)OC(CCCCCCCC)CCCCCCCC)NC1CC2(COC2)C1 (stereo not shown) [Compound 24, 1-(heptadecan-9-yl) 15-nonyl 8-((2-oxaspiro[3.3]heptan-6-yl)amino)pentadecanedioate]",94,52,71,748.9,,,,
"CCCCCCCCC(C)OC(=O)CCCCCCC(CCCCCCC(=O)OC(CCCCCCCC)CCCCCCCC)NC1CC2(COC2)C1 (stereo not shown) [Compound 25, 1-(decan-2-yl) 15-(heptadecan-9-yl) 8-((2-oxaspiro[3.3]heptan-6-yl)amino)pentadecanedioate]",94,50,69,15961.7,,,,
"CCCCCCCCC(CCCCCCCC)OC(=O)CCCCCCC(CCCCCCC(=O)OCCCCCCCC(C)C)NC1CC2(COC2)C1 (stereo not shown) [Compound 26, 1-(heptadecan-9-yl) 15-(8-methylnonyl) 8-((2-oxaspiro[3.3]heptan-6-yl)amino)pentadecanedioate]",94,50,75,824.8,,,,
"CCCCCCCCC(CCCCCCCC)OC(=O)CCCCCCC(CCCCCCC(=O)OCCC(CCCCCCC)CCCCCCC)NC1CC2(COC2)C1 (stereo not shown) [Compound 27, 1-(heptadecan-9-yl) 15-(3-heptyldecyl) 8-((2-oxaspiro[3.3]heptan-6-yl)amino)pentadecanedioate]",97,55,98,4982.6,,,,
"CCCCCCCC(CCCCCCC)COC(=O)CCCCCCC(CCCCCCC(=O)OCC(CCCCCCC)CCCCCCC)NC1CC2(COC2)C1 [Compound 28, Bis(2-heptylnonyl) 8-((2-oxaspiro[3.3]heptan-6-yl)amino)pentadecanedioate]",97,80,129,9557.1,,,,
"CCCCCCCCC(C)OC(=O)CCCCCCC(CCCCCCC(=O)OCC(CCCCCCC)CCCCCCC)NC1CC2(COC2)C1 (stereo not shown) [Compound 29, 1-(decan-2-yl) 15-(2-heptylnonyl) 8-((2-oxaspiro[3.3]heptan-6-yl)amino)pentadecanedioate]",90,51,71,1288.4,,,,
"CCCCCCCCC(CCCCCCCC)OC(=O)CCCCCCCC(CCCCCCCC(=O)OC(CCCCCCCC)CCCCCCCC)NC1CC2(COC2)C1 [Compound 31, Di(heptadecan-9-yl) 9-((2-oxaspiro[3.3]heptan-6-yl)amino)heptadecanedioate]",94,47,62,1319.3,,,,
"CCCCCCCCC(C)OC(=O)CCCCCCCC(CCCCCCCC(=O)OC(CCCCCCCC)CCCCCCCC)NC1CC2(COC2)C1 (stereo not shown) [Compound 32, 1-(decan-2-yl) 17-(heptadecan-9-yl) 9-((2-oxaspiro[3.3]heptan-6-yl)amino)heptadecanedioate]",94,56,72,16518.2,,,,
"CCCCCCCCC(CCCCCCCC)OC(=O)CCCCCCCC(CCCCCCCC(=O)OCC(CCCCCCC)CCCCCCC)NC1CC2(COC2)C1 (stereo not shown) [Compound 33, 1-(heptadecan-9-yl) 17-(2-heptylnonyl) 9-((2-oxaspiro[3.3]heptan-6-yl)amino)heptadecanedioate]",97,53,67,1056.2,,,,
"CCCCCCC(CCCCCC)COC(=O)CCCCCCCC(CCCCCCCC(=O)OCC(CCCCCC)CCCCCC)NC1CC2(COC2)C1 [Compound 34, Bis(2-hexyloctyl) 9-((2-oxaspiro[3.3]heptan-6-yl)amino)heptadecanedioate]",96,51,68,11015.4,,,,
"CCCCCCCCC(C)OC(=O)CCCCCCCC(CCCCCCCC(=O)OC(CCCCCCCC)CCCCCCCC)NCC1CCOCC1 (stereo not shown) [Compound 35, 1-(decan-2-yl) 17-(heptadecan-9-yl) 9-(((tetrahydro-2H-pyran-4-yl)methyl)amino)heptadecanedioate]",,,,,95,59,77,5974.6
"CCCCCCCCC(C)OC(=O)CCCCCCCC(CCCCCCCC(=O)OC(CCCCCCCC)CCCCCCCC)NCC1CCOC1 (stereo not shown) [Compound 36, 1-(decan-2-yl) 17-(heptadecan-9-yl) 9-(((tetrahydrofuran-3-yl)methyl)amino)heptadecanedioate]",,,,,96,57,73,6133.5
"CCCCCCCCC(C)OC(=O)CCCCCCCC(CCCCCCCC(=O)OC(CCCCCCCC)CCCCCCCC)NCC1COC1 (stereo not shown) [Compound 37, 1-(decan-2-yl) 17-(heptadecan-9-yl) 9-((oxetan-3-ylmethyl)amino)heptadecanedioate]",,,,,93,47,60,1225.5
"CCCCCCCCC(CC)OC(=O)CCCCCCCC(CCCCCCCC(=O)OC(CCCCCCCC)CCCCCCCC)NC1CC2(COC2)C1 (stereo not shown) [Compound 38, 1-(heptadecan-9-yl) 17-(undecan-3-yl) 9-((2-oxaspiro[3.3]heptan-6-yl)amino)heptadecanedioate]",,,,,97,61,76,9730.7
"CCCCCCCCC(CC)OC(=O)CCCCCCCC(CCCCCCCC(=O)OC(CCCCCCCC)CCCCCCCC)NCC1CCOCC1 (stereo not shown) [Compound 39, 1-(heptadecan-9-yl) 17-(undecan-3-yl) 9-(((tetrahydro-2H-pyran-4-yl)methyl)amino)heptadecanedioate]",,,,,97,55,69,3383.8
"CCCCCCCCC(CC)OC(=O)CCCCCCCC(CCCCCCCC(=O)OC(CCCCCCCC)CCCCCCCC)NCC1CCOC1 (stereo not shown) [Compound 40, 1-(heptadecan-9-yl) 17-(undecan-3-yl) 9-(((tetrahydrofuran-3-yl)methyl)amino)heptadecanedioate]",,,,,97,53,70,3658.4
"CCCCCCCCC(CC)OC(=O)CCCCCCCC(CCCCCCCC(=O)OC(CCCCCCCC)CCCCCCCC)NCC1COC1 (stereo not shown) [Compound 41, 1-(heptadecan-9-yl) 17-(undecan-3-yl) 9-((oxetan-3-ylmethyl)amino)heptadecanedioate]",,,,,98,54,69,7390.2
"CCCCCCCCC(CCCCCCCC)OC(=O)CCCCCCCC(CCCCCCCC(=O)OCCC(C)CCCCCC)NC1CC2(COC2)C1 (stereo not shown) [Compound 42, 1-(heptadecan-9-yl) 17-(3-methylnonyl) 9-((2-oxaspiro[3.3]heptan-6-yl)amino)heptadecanedioate]",,,,,94,66,84,1868.2
